From ChEMBL document CHEMBL1201862, “PubChem BioAssay data set” (2004)
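Five compound concentrations were applied to cells in 96-well plates for 48 hours; endpoints were derived by simple linear interpolation of the resulting dose-response curve. GI50 marks 50% less growth.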 Active and inactive are the calls of the source. Rule as the data show it: active = GI50 up to about 1.1 µM and inactive = higher.

Legend:
Test in all cases: NCI-60 cell line screen, 48 h
[1] = system: CAKI-1
[2] = system: COLO 205
[3] = system: HL-60
[4] = system: IGROV-1
[5] = system: K562
[6] = system: NCI-H522
[7] = system: SF-268
[8] = system: SF-295
[9] = system: SNB-19
[10] = system: SNB-75
[11] = system: SR
[12] = system: SW-620
[13] = system: U-251
[14] = system: UO-31
[15] = system: BT-549
[16] = system: MCF7
[17] = system: MDA-MB-231
[18] = system: PC-3
[19] = system: T47D
[20] = system: MDA-N

COc1ccc(/C=N/N=C(\N)NO)cc1F
GI50 [1]: 14.5 µM (inactive)
GI50 [2]: 10.5 µM (inactive)
GI50 [3]: 27.4 µM (inactive)
GI50 [4]: 31.3 µM (inactive)
GI50 [5]: 8 µM (inactive)
GI50 [6]: 22.1 µM (inactive)
GI50 [7]: 17.1 µM (inactive)
GI50 [8]: 23 µM (inactive)
GI50 [9]: 37.6 µM (inactive)
GI50 [10]: 27.4 µM (inactive)
GI50 [11]: 15.9 µM (inactive)
GI50 [12]: 41.2 µM (inactive)
GI50 [13]: 25 µM (inactive)
GI50 [14]: 14 µM (inactive)

CCOC(=O)/N=c1\ss/c(=N\C(=S)N(C)C)n1-c1ccccc1
GI50 [1]: 48 µM (inactive)
GI50 [2]: 3.19 µM (inactive)
GI50 [3]: > 10 µM (inactive)
GI50 [4]: 4.11 µM (inactive)
GI50 [5]: 19 µM (inactive)
GI50 [6]: 0.235 µM (active)
GI50 [7]: 2.06 µM (inactive)
GI50 [8]: 29.7 µM (inactive)
GI50 [9]: 47.2 µM (inactive)
GI50 [10]: 6.03 µM (inactive)
GI50 [11]: 3.72 µM (inactive)
GI50 [12]: > 10 µM (inactive)
GI50 [13]: 19.4 µM (inactive)
GI50 [14]: > 10 µM (inactive)

COc1cccc(C2SCC(=O)N2c2ccc(-c3ccc(-n4c(-c5ccccc5)nc5ccccc5c4=O)cc3)cc2)c1OC (centres undefined)
GI50 [15]: 42 µM (inactive)
GI50 [1]: 67.8 µM (inactive)
GI50 [2]: > 100 µM (inactive)
GI50 [3]: 73.8 µM (inactive)
GI50 [4]: 99.1 µM (inactive)
GI50 [5]: 73.6 µM (inactive)
GI50 [16]: 25.2 µM (inactive)
GI50 [17]: > 100 µM (inactive)
GI50 [6]: > 100 µM (inactive)
GI50 [18]: > 100 µM (inactive)
GI50 [7]: 71.8 µM (inactive)
GI50 [8]: > 100 µM (inactive)
GI50 [9]: > 100 µM (inactive)
GI50 [10]: 22 µM (inactive)
GI50 [11]: 60.1 µM (inactive)
GI50 [12]: > 10 µM (inactive)
GI50 [19]: 24.5 µM (inactive)
GI50 [13]: 34.6 µM (inactive)
GI50 [14]: 32.8 µM (inactive)

N#CCCC1(CCC#N)CCc2ccccc2C1=O
GI50 [1]: > 100 µM (inactive)
GI50 [3]: > 100 µM (inactive)
GI50 [4]: > 100 µM (inactive)
GI50 [5]: > 100 µM (inactive)
GI50 [16]: > 100 µM (inactive)
GI50 [17]: > 100 µM (inactive)
GI50 [20]: > 100 µM (inactive)
GI50 [6]: > 100 µM (inactive)
GI50 [18]: > 100 µM (inactive)
GI50 [7]: > 100 µM (inactive)
GI50 [9]: > 100 µM (inactive)
GI50 [10]: > 100 µM (inactive)
GI50 [11]: > 100 µM (inactive)
GI50 [12]: > 100 µM (inactive)
GI50 [19]: > 100 µM (inactive)
GI50 [13]: > 100 µM (inactive)
GI50 [14]: > 100 µM (inactive)

CCOC(=O)/C(C)=C\[C@@]1(C)O[C@@H](C)[C@@](C)(OC(C)=O)[C@@H]1OC(C)=O
GI50 [1]: 33 µM (inactive)
GI50 [2]: 30 µM (inactive)
GI50 [3]: 39.6 µM (inactive)
GI50 [4]: 37.7 µM (inactive)
GI50 [5]: 38.6 µM (inactive)
GI50 [16]: 23 µM (inactive)
GI50 [17]: 57.5 µM (inactive)
GI50 [20]: 44.5 µM (inactive)
GI50 [6]: 25.2 µM (inactive)
GI50 [18]: 36.6 µM (inactive)
GI50 [7]: 39.3 µM (inactive)
GI50 [8]: 36.8 µM (inactive)
GI50 [9]: > 100 µM (inactive)
GI50 [11]: 58.3 µM (inactive)
GI50 [12]: 67.5 µM (inactive)
GI50 [19]: 19.9 µM (inactive)
GI50 [13]: 64.1 µM (inactive)

C[C@@]12CCC(=O)c3coc(c31)C(=O)c1cc3c(cc12)C(=O)C=CC3=O [HELENAQUINONE]
GI50 [1]: 21.1 µM (inactive)
GI50 [2]: 16 µM (inactive)
GI50 [3]: 2.45 µM (inactive)
GI50 [4]: 25.9 µM (inactive)
GI50 [5]: > 22.2 µM (inactive)
GI50 [6]: 9.2 µM (inactive)
GI50 [7]: 18.8 µM (inactive)
GI50 [8]: 16.7 µM (inactive)
GI50 [9]: > 100 µM (inactive)
GI50 [10]: 20.9 µM (inactive)
GI50 [11]: 30.1 µM (inactive)
GI50 [12]: 19.1 µM (inactive)
GI50 [13]: 23.7 µM (inactive)
GI50 [14]: 17.2 µM (inactive)

COc1c(-c2ccc3c(c2)OCO3)oc2cc(O)cc(O)c2c1=O
GI50 [1]: 27.7 µM (inactive)
GI50 [2]: > 100 µM (inactive)
GI50 [3]: 41.5 µM (inactive)
GI50 [4]: 26.2 µM (inactive)
GI50 [5]: 45.1 µM (inactive)
GI50 [16]: 21.6 µM (inactive)
GI50 [17]: 97.7 µM (inactive)
GI50 [20]: 62.7 µM (inactive)
GI50 [6]: 19.2 µM (inactive)
GI50 [18]: 57.3 µM (inactive)
GI50 [7]: 32.6 µM (inactive)
GI50 [8]: 34.4 µM (inactive)
GI50 [9]: > 100 µM (inactive)
GI50 [10]: 13.4 µM (inactive)
GI50 [11]: 22.6 µM (inactive)
GI50 [19]: 12.9 µM (inactive)
GI50 [13]: 75.2 µM (inactive)
GI50 [14]: 7.19 µM (inactive)

CCSC1=N/C(=C\c2ccco2)C(=O)N1
GI50 [2]: > 100 µM (inactive)
GI50 [4]: 74.8 µM (inactive)
GI50 [5]: > 100 µM (inactive)
GI50 [16]: 6.59 µM (inactive)
GI50 [17]: > 100 µM (inactive)
GI50 [20]: > 100 µM (inactive)
GI50 [6]: > 100 µM (inactive)
GI50 [18]: > 100 µM (inactive)
GI50 [7]: > 100 µM (inactive)
GI50 [8]: > 100 µM (inactive)
GI50 [9]: 70.8 µM (inactive)
GI50 [10]: > 100 µM (inactive)
GI50 [11]: > 100 µM (inactive)
GI50 [12]: > 100 µM (inactive)
GI50 [13]: > 100 µM (inactive)
GI50 [14]: > 100 µM (inactive)
